Literature values as cited in PubChem BioAssay AID1259409 (Chemical Carcinogenesis Research Information System (CCRIS), 2018).

System: rodent chemically induced tumor inhibition, incidence and multiplicity
Assay: CCRIS tumor inhibitor studies
Conditions: Dose [Inhibitor]: 0, Species: MOUSE, Promoter: NONE USED

SMILES	tumour outcome (control, treated, inhibition, significance) (Carcinogen: BENZO[A]PYRENE, 50-32-8, 25 PPM IN DIET BEGINNING POST CARCINOGEN TREATMENT AND CONTINUING FOR DURATION OF STUDY (STUDY DURATION: 148 D), Route [Inhibitor]: ORAL, Strain/Sex: ICR/FEMALE, Target Tissue: Type of Lesion: FORESTOMACH: TUMOR, Dose [Carcinogen]: 1.5 MG IN 0.2 ML CORN OIL 1/WK FOR 4 WK)	tumour outcome (control, treated, inhibition, significance) (Carcinogen: BENZO[A]PYRENE, 50-32-8, 50 PPM IN DIET BEGINNING POST CARCINOGEN TREATMENT AND CONTINUING FOR DURATION OF STUDY (STUDY DURATION: 148 D), Route [Inhibitor]: ORAL, Strain/Sex: ICR/FEMALE, Target Tissue: Type of Lesion: FORESTOMACH: TUMOR, Dose [Carcinogen]: 1.5 MG IN 0.2 ML CORN OIL 1/WK FOR 4 WK)	tumour outcome (control, treated, inhibition, significance) (Carcinogen: BENZO[A]PYRENE, 50-32-8, 75 PPM IN DIET BEGINNING POST CARCINOGEN TREATMENT AND CONTINUING FOR DURATION OF STUDY (STUDY DURATION: 148 D), Route [Inhibitor]: ORAL, Strain/Sex: ICR/FEMALE, Target Tissue: Type of Lesion: FORESTOMACH: TUMOR, Dose [Carcinogen]: 1.5 MG IN 0.2 ML CORN OIL 1/WK FOR 4 WK)	tumour outcome (control, treated, inhibition, significance) (Carcinogen: 4-(METHYLNITROSAMINO)-1-(3-PYRIDYL)-1-BUTANONE, 64091-91-4, 1 UMOL ONCE 2 HR PRIOR TO CARCINOGEN DOSE (STUDY DURATION: 16 WK), Route [Inhibitor]: GAVAGE, Strain/Sex: STRAIN-A/FEMALE, Target Tissue: Type of Lesion: LUNG: ADENOMA, Dose [Carcinogen]: 10 UMOL IN 0.1 ML SALINE ONCE)	tumour outcome (control, treated, inhibition, significance) (Carcinogen: 4-(METHYLNITROSAMINO)-1-(3-PYRIDYL)-1-BUTANONE, 64091-91-4, 5 UMOL ONCE 2 HR PRIOR TO CARCINOGEN DOSE (STUDY DURATION: 16 WK), Route [Inhibitor]: GAVAGE, Strain/Sex: STRAIN-A/FEMALE, Target Tissue: Type of Lesion: LUNG: ADENOMA, Dose [Carcinogen]: 10 UMOL IN 0.1 ML SALINE ONCE)
CCC1OC(C)=C(O)C1=O (stereo not given)	100%, 76%, 24%, not calculated	100%, 54%, 46%, not calculated	100%, 75%, 25%, not calculated		
S=C=NCC(c1ccccc1)c1ccccc1				100%, 60%, 40%, p<0.05	100%, 45%, 55%, p<0.05
